The test system of assay [1] is MV-4-11 cells (human acute myelogenous leukemia cell line carrying MLL-AF4 mutation). The assay can be described thus: Cell proliferation assay, MV-4-11 (CellTiter-Glo). It is filed as cell-based. The note with it: Homo sapiens, MV4-11, 72 h, MV-4-11 cells, 3 days treatment, CellTiter-Glo; read-out: GI50. The method, boiled down: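 MV-4-11 cells (3000/well, IMDM with 10% HIFBS and 50 μM β-mercaptoethanol) exposed to compound at 1.100–0.001 μM final, 0.1% DMSO, for 3 days at 37°C. Viability read by CellTiter-Glo luminescence on day 0 and day 3, normalised to day-0 and untreated wells.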

Assay [2] deals with Recombinant human Menin protein (2-610) / MLL polypeptide binding (Homo sapiens (Human), UniProt O00255). The assay can be described thus: Menin and MLL protein binding at a molecular level (fluorescence polarization method). As to conditions: inhibition of Menin / MLL polypeptide binding. In a few lines:
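Binding of recombinant human Menin (2-610) to 6-FAM-labelled MLL peptide measured by fluorescence polarization (ex 480/em 535 nm) in Tris/NaCl/TCEP buffer, pH 7.5, 2% DMSO. Compound preincubated with Menin 30 min at room temperature, then peptide added for 30 min in the dark. Tested at 1.000 down to 0.0005 μM final.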
For orientation: In fluorescence polarisation assays a small probe gives low polarisation when free and higher when bound to something large.

Sequence of Recombinant human Menin protein (2-610) / MLL polypeptide binding (O00255 2-610): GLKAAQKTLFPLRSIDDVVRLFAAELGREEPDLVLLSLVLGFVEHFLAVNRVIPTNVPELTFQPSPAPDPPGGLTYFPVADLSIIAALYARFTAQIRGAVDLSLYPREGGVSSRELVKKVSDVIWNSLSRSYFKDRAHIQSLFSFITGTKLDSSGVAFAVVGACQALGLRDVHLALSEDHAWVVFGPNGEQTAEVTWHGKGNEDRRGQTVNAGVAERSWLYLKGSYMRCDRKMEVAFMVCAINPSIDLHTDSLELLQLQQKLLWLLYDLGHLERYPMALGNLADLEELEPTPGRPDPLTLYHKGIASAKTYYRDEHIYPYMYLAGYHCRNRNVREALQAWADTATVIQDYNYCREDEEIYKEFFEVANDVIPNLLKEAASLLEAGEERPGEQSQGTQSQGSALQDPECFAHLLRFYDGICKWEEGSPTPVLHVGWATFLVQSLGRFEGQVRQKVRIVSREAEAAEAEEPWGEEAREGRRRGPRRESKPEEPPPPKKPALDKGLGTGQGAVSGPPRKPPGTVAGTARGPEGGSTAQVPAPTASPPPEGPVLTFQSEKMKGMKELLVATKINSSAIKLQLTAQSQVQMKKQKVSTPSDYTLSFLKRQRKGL

A word on the GI50: it is the concentration at which growth is held to half of that of the control. As a reminder, the IC50 is the midpoint of a concentration-inhibition curve. Regarding `CCN(C(=O)c1cc(F)ccc1Oc1nncnc1N1CC2(CCN(CC3CCN(c4cnc(OC)c(OC)c4)CC3)CC2)C1)C(C)C` [Compound 111], the GI50 in assay [1] is 0.008 µM. The IC50 in assay [2] amounted to 0.0052 µM.
Take `CCN(C(=O)c1cc(F)ccc1Oc1nncnc1N1CC2(CCN(CC3CCN(c4ccc(OC)cn4)CC3)CC2)C1)C(C)C` [Compound 112]: the concentration for 50% growth inhibition (GI50) in assay [1] came out at 0.005 µM. For the same compound, the IC50 in assay [2] worked out at 0.0059 µM.
The corresponding values for `CCN(C(=O)c1cc(F)ccc1Oc1nncnc1N1CC2(CCN(CC3CCN(c4cc(OC)ccn4)CC3)CC2)C1)C(C)C` [Compound 113] are 0.004 µM and 0.0019 µM.
The like results for `CCN(C(=O)c1cc(F)ccc1Oc1nncnc1N1CC2(CCN(CC3CCN(c4ccnc(OC)c4)CC3)CC2)C1)C(C)C` [Compound 114] were, in that order, 0.003 µM and 0.0023 µM.
Take `CCN(C(=O)c1cc(F)ccc1Oc1nncnc1N1CC2(CCN(CC3CCN(c4ccc(C#N)nc4)CC3)CC2)C1)C(C)C` [Compound 115]: the GI50 in assay [1] came to 0.006 µM. For the same compound, in assay [2], the IC50 was 0.0047 µM.
As to `CCN(C(=O)c1cc(F)ccc1Oc1nncnc1N1CC2(CCN(CC3CCN(c4ccc(C#N)cn4)CC3)CC2)C1)C1CC1` [Compound 116], in assay [1], the GI50 stood at 0.07 µM. Moreover, in assay [2], the IC50 amounted to 0.0535 µM.
The corresponding values for `N#Cc1ccc(N2CCC(CN3CCC4(CC3)CN(c3ncnnc3Oc3ccc(F)cc3C3=CCOCC3)C4)CC2)nc1` [Compound 117] are 0.255 µM and 0.175 µM.
The corresponding values for `Cc1nc(-c2cc(F)ccc2Oc2nncnc2N2CC3(CCN(CC4CCN(c5ccc(C#N)cn5)CC4)CC3)C2)n(C(C)C)n1` [Compound 118] are more than 3.3 µM and more than 1 µM.
The like results for `CCN(C(=O)c1cc(F)ccc1Oc1nncnc1N1CC2(CCN(CC3CCN(c4cccc(C(N)=O)n4)CC3)CC2)C1)C(C)C` [Compound 119] were, in that order, 0.003 µM and 0.0023 µM.
In the case of `CCN(C(=O)c1cc(F)ccc1Oc1nncnc1N1CC2(CCN(CC3CCN(c4ccnc(C(C)(C)O)c4)CC3)CC2)C1)C(C)C` [Compound 120], the GI50 in assay [1] was found to be 0.036 µM. Also, the IC50 in assay [2] is 0.0152 µM.
The like results for `CCN(C(=O)c1cc(F)ccc1Oc1nncnc1N1CC2(CCN(CC3CCN(c4cccc(C(C)(C)O)n4)CC3)CC2)C1)C(C)C` [Compound 121] were, in that order, 0.003 µM and 0.0015 µM.
Take `CCN(C(=O)c1cc(F)ccc1Oc1nncnc1N1CC2(CCN(CC3CCC(n4ccccc4=O)CC3)CC2)C1)C(C)C` (stereo not shown) [Compound 122]: the GI50 in assay [1] came out at 0.119 µM. For the same compound, the IC50 in assay [2] is more than 0.2 µM.
The like results for `CCN(C(=O)c1cc(F)ccc1Oc1nncnc1N1CC2(CCN(CC3CC=C(c4ccccn4)CC3)CC2)C1)C(C)C` (stereo not shown) [Compound 123] were, in that order, 0.039 µM and 0.133 µM.
For `CCN(C(=O)c1cc(F)ccc1Oc1nncnc1N1CC2(CCN(Cc3ccc(-c4ccccn4)cc3)CC2)C1)C(C)C` [Compound 124], the GI50 in assay [1] is 0.505 µM. Also, the IC50 in assay [2] is more than 0.2 µM.
The like results for `CCN(C(=O)c1cc(F)ccc1Oc1nncnc1N1CC2(CCN(CC3CCC(O)(c4ccccn4)CC3)CC2)C1)C(C)C` (stereo not shown) [Compound 125] were, in that order, 0.585 µM and more than 0.2 µM.
The corresponding values for `CCN(C(=O)c1cc(F)ccc1Oc1nncnc1N1CC2(CCN(CC3CCN(c4ccc(C#N)cn4)CC3(C)C)CC2)C1)C(C)C` (stereo not shown) [Compound 126] are 0.027 µM and 0.0146 µM.
Regarding `CCN(C(=O)c1cc(F)ccc1Oc1nncnc1N1CC(C2(NCc3ccc4[nH]c(C#N)cc4c3C)CC2)C1)C(C)C` [Compound 127], the GI50 in assay [1] is 0.242 µM. Besides, the IC50 in assay [2] was 0.0243 µM.
For the compound `CCN(C(=O)c1cc(F)ccc1Oc1nncnc1N1CCC(C2(NCc3ccc4[nH]c(C#N)cc4c3C)CC2)C1)C(C)C` (stereo not shown) [Compound 128], the GI50 in assay [1] was found to be 0.07 µM. Moreover, in assay [2], the IC50 was 0.0051 µM.
The corresponding values for `CCN(C(=O)c1cc(F)ccc1Oc1nncnc1N1CC(C2CCCN2Cc2ccc3[nH]c(C#N)cc3c2C)C1)C(C)C` (stereo not shown) [Compound 129] are 0.199 µM and 0.178 µM.
Regarding `CCN(C(=O)c1cc(F)ccc1Oc1nncnc1N1CC2(CCN(Cc3ccc4c(cc(C#N)n4C4COC4)c3C)CC2)C1)C(C)C` [Compound 130], in assay [1], the GI50 is 0.009 µM. Further, the IC50 in assay [2] came to 0.0027 µM.
Take `CCN(C(=O)c1cc(F)ccc1Oc1nncnc1N1CC2(CCN(Cc3ccc4[nH]c(C#N)c(C5=CCOCC5)c4c3C)CC2)C1)C(C)C` [Compound 131, 2-((5-(7-((2-cyano-3-(3,6-dihydro-2H-pyran-4-yl)-4-methyl-1H-indol-5-yl)methyl)-2,7-diazaspiro[3.5]nonan-2-yl)-1,2,4-triazin-6-yl)oxy)-N-ethyl-5-fluoro-N-isopropylbenzamide]: the GI50 in assay [1] came out at 0.018 µM. The IC50 in assay [2] worked out at 0.018 µM.
As to `CCN(C(=O)c1cc(F)ccc1Oc1nncnc1N1CC2(CCN(CC3CCN(c4cccc(CO)n4)CC3)CC2)C1)C(C)C` [Compound 132, N-ethyl-5-fluoro-2-((5-(7-((1-(6-(hydroxymethyl)pyridin-2-yl)piperidin-4-yl)methyl)-2,7-diazaspiro[3.5]nonan-2-yl)-1,2,4-triazin-6-yl)oxy)-N-isopropylbenzamide], in assay [1], the GI50 came out at 0.009 µM. Besides, the IC50 in assay [2] stood at 0.0027 µM.
The corresponding values for `C=Cc1ccc(N2CCC(CN3CCC4(CC3)CN(c3ncnnc3Oc3ccc(F)cc3C(=O)N(CC)C(C)C)C4)CC2)nn1` [Compound 133, N-ethyl-5-fluoro-N-isopropyl-2-((5-(7-((1-(6-vinylpyridazin-3-yl)piperidin-4-yl)methyl)-2,7-diazaspiro[3.5]nonan-2-yl)-1,2,4-triazin-6-yl)oxy)benzamide] are 0.004 µM and 0.002 µM.
The like results for `C#Cc1ccc(N2CCC(CN3CCC4(CC3)CN(c3ncnnc3Oc3ccc(F)cc3C(=O)N(CC)C(C)C)C4)CC2)nn1` [Compound 134] were, in that order, 0.002 µM and 0.0013 µM.
For `CCN(C(=O)c1cc(F)ccc1Oc1nncnc1N1CC2(CCN(CC3CCC(c4ccccn4)CC3)CC2)C1)C(C)C` (stereo not shown) [Compound 135, N-ethyl-5-fluoro-N-isopropyl-2-((5-(7-((4-(pyridin-2-yl)cyclohexyl)methyl)-2,7-diazaspiro[3.5]nonan-2-yl)-1,2,4-triazin-6-yl)oxy)benzamide], the GI50 in assay [1] was found to be 0.022 µM. Further, in assay [2], the IC50 worked out at 0.0555 µM.
The like results for `N#Cc1ccc(N2CCC(CN3CCC4(CC3)CN(c3ncnnc3Oc3ccc(F)cc3C3=C(F)C(O)CCC3)C4)CC2)nc1` (stereo not shown) [Compound 136, 6-(4-((2-(6-((5,6′-difluoro-5′-hydroxy-2′,3′,4′,5′-tetrahydro-[1,1′-biphenyl]-2-yl)oxy)-1,2,4-triazin-5-yl)-2,7-diazaspiro[3.5]nonan-7-yl)methyl)piperidin-1-yl)nicotinonitrile] were, in that order, 0.17 µM and 0.184 µM.
The like results for `CCN(C(=O)c1cc(F)ccc1Oc1nncnc1N1CC2(CCN(CC3CCN(C4COC4)CC3)CC2)C1)C(C)C` [Compound 137, N-ethyl-5-fluoro-N-isopropyl-2-((5-(7-((1-(oxetan-3-yl)piperidin-4-yl)methyl)-2,7-diazaspiro[3.5]nonan-2-yl)-1,2,4-triazin-6-yl)oxy)benzamide] were, in that order, 0.181 µM and 0.141 µM.
The like results for `CCN(C(=O)c1cc(F)ccc1Oc1nncnc1N1CC2(CCN(CC3CCN(Cc4c(C)cc(C)[nH]c4=O)CC3)CC2)C1)C(C)C` [Compound 138] were, in that order, 0.409 µM and 0.102 µM.
Consider `CCN(C(=O)c1cc(F)ccc1Oc1nncnc1N1CC(C2(N(C)Cc3ccc4[nH]c(C#N)cc4c3C)CC2)C1)C(C)C` [Compound 139, 2-((5-(3-(1-(((2-cyano-4-methyl-1H-indol-5-yl)methyl)(methyl)amino)cyclopropyl)azetidin-1-yl)-1,2,4-triazin-6-yl)oxy)-N-ethyl-5-fluoro-N-isopropylbenzamide], for which the GI50 in assay [1] came out at 0.023 µM. In assay [2], the IC50 was 0.0061 µM.
Regarding `CCN(C(=O)c1cc(F)ccc1Oc1nncnc1N1CC2(CCN(CC3(N(C)CCOC)CC3)CC2)C1)C(C)C` [Compound 140], the GI50 in assay [1] was determined as 0.037 µM. In assay [2], the IC50 came out at 0.0316 µM.
With `CCN(C(=O)c1cc(F)ccc1Oc1nncnc1N1CC(C2(N(Cc3ccc4[nH]c(C#N)cc4c3C)C(C)C)CC2)C1)C(C)C` [Compound 141], in assay [1], the GI50 was determined as 0.442 µM. In addition, the IC50 in assay [2] was 0.153 µM.
On to `CCN(C(=O)c1cc(F)ccc1Oc1nncnc1N1CCC(C2(N(C)Cc3ccc4[nH]c(C#N)cc4c3C)CC2)C1)C(C)C` (stereo not shown) [Compound 142], for which the GI50 in assay [1] was determined as 0.257 µM. Also, the IC50 in assay [2] is 0.124 µM.
In the case of `CCN(C(=O)c1cc(F)ccc1Oc1nncnc1N1CCC(C2(N(Cc3ccc4[nH]c(C#N)cc4c3C)C(C)C)CC2)C1)C(C)C` (stereo not shown) [Compound 143], in assay [1], the GI50 was 2.95 µM. Moreover, the IC50 in assay [2] was more than 1 µM.
As for `CCN(C(=O)c1cc(F)ccc1Oc1nncnc1N1CC2(CCN(CC3(N(C)C(=O)COC)CC3)CC2)C1)C(C)C` [Compound 144, N-ethyl-5-fluoro-N-isopropyl-2-((5-(7-((1-(2-methoxy-N-methylacetamido)cyclopropyl)methyl)-2,7-diazaspiro[3.5]nonan-2-yl)-1,2,4-triazin-6-yl)oxy)benzamide], the GI50 in assay [1] was 0.644 µM. Also, the 50% inhibitory concentration (IC50) in assay [2] is 0.616 µM.
The corresponding values for `CCN(C(=O)c1cc(F)ccc1Oc1nncnc1N1CC(C2(N(C)Cc3cc(C(N)=O)n(C)n3)CC2)C1)C(C)C` [Compound 145, 3-(((1-(1-(6-(2-(ethyl(isopropyl)carbamoyl)-4-fluorophenoxy)-1,2,4-triazin-5-yl)azetidin-3-yl)cyclopropyl)(methyl)amino)methyl)-1-methyl-1H-pyrazole-5-carboxamide] are more than 3.3 µM and more than 1 µM.

Values taken from US20260055108A1, “TRIAZINE COMPOUNDS AND USES THEREOF” (HUTCHMED LIMITED, priority 2022, published 2026).
